# Measured values as given in US10273218B2, “BCL-3 inhibitors” (University College Cardiff Consultants Limited, priority 2014, dated 2019).
# Assays:
# [1] = system: human breast cancer cell line MDA-MB-436; test: transwell (Boyden chamber) cell migration assay after scratch; format: cell-based; settings: 10 micromolar compound, 24 hours before and 24 hours in transwell chambers, versus DMSO, compound 12, MEKi
# Description: The migration of cells in the presence of a compound of Formula (I) or Formula (Ia) is determined using a Scratch assay.
# For the Scratch Assay, 1 micromolar solutions of the compounds are prepared. In six well plates, the complete growth media of the seeded cells (density […] in 20 mL) is removed and replaced by 3 mL of a fresh one containing compounds of Formula (I) or Formula (Ia). Media is used as a negative compound.
# After a 24 h incubation period at 5% CO2 and 37° C., the media is removed and a scratch is performed in each well. 1 mL of fresh complete growth media is used to wash the well. After its removal, 3 mL of a solution containing a compound of Formula (I) or Formula (Ia) is added in each well in triplicate. Pictures of the wells are then taken. After 24 h, pictures of the wells are again taken. […]
# The cell migration assay used was the transwell (Boyden chamber) assay of cell migration in human breast cancer cell line MDA-MB-436. After a scratch was performed in each well the cells were incubated with a 10 micromolar solution of compound for 24 hours prior to passage into transwell chambers where they were maintained in the presence of compound for a further 24 hours before assessment of migration (measured by total fluorescence on opposing surface of transwell membrane following staining). Reduced fluorescence directly correlates with number of cells migrated. […]
# [2] = system: human breast cancer MDA-MB-231 xenograft; test: in vivo metastasis mouse Model 1 (seeding and early colonization of circulating tumour cells); set-up: species or system mice; settings: 3.5 mg/Kg intraperitoneal daily for 10 days, relative luminescence of thoracic region
# Description: In all experiments, each compound was administered by intraperitoneally at 3.5 mg/kg.
# (§1) One model (Model 1) studied the effect of the compound's ability to inhibit the seeding and early colonization of circulating tumour cells at distal sites, most commonly in the lungs and liver. Human tumour cell lines were injected into the bloodstream of recipient mice, followed by single daily intraperitoneal injections of the compound (3.5 mg/kg in 1% DMSO) for 10 consecutive days. Tumour burden was monitored longitudinally for up to 8 weeks in vivo by live luminescence imaging, and subsequently histology performed on affected organs at the end of the experiment.
# as §1, with “Model 1 tested” for “One model (Model 1) studied”, “Bcl3i compounds” for “the compound's ability”, “Bcl3 inhibitor” for “the compound”
# The X axis represents the number of days after xenograft and the Y axis is the relative luminescence of the thoracic region by Xenon IVIS scanning of mice following injection of d-luciferin for 10 minutes.
# MDA-MB-231 human breast cancer cells were used in each of the three xenograft models of metastatic breast cancer.
smiles,measurement,setting,value
O=C(Nc1ccccc1C(=O)NCCN1CCOCC1)c1ccc2ccccc2c1 [Compound 31],reduction of cell migration (total fluorescence on opposing surface of transwell membrane),[1],more effective at reducing cell migration than the known potent cell migration inhibitor MEKi
same,potency of effect in Model 1 relative to compound 28,[2],more potent effects than compound 28
same,inhibition of metastasis / tumour burden in Model 1,[2]; versus controls and compound 12,equivalent inhibition of metastasis in vivo to compound 12
